Earlier results in CN102028697A, “含非离子表面活性剂的拉坦前列素滴眼液及制备方法” (SHANGHAI SINE PHARMACEUTICAL CO Ltd, priority 2009, dated 2011).

What was measured:
[1] = in water

permissible time at 40℃: ≤ 8 days
solubility [1]: 几乎不溶
Compound: CC(C)OC(=O)CCC/C=C\C[C@@H]1[C@@H](CC[C@@H](O)CCc2ccccc2)[C@H](O)C[C@@H]1O [拉坦前列素]
